Measurements reported in US6723736B2, “Tricyclic compounds and uses thereof” (Theracos, Inc., priority 2000, dated 2004).

Tests used:
[1] = system: TNF-alpha induced killing of WEHI-13VAR cells; test: Inhibition of TNF-alpha induced cell killing (MTT viability); assay type: cell-based, mouse
Procedure: Compounds B and E were tested for their ability to inhibit TNF-alpha induced killing of cultured mouse fibrosarcoma cells. WEHI-13VAR cells were grown in buffered RPMI-1640 medium containing 3% FBS and assayed for TNF-alpha induced cell death as described by Khabar et al. (Immunol Lett 46:107-10, 1995). Cells were co-incubated for 20 hr with 100 pg/ml (FIG. 1A) or 1 pg/ml (FIG. 1B) of TNF-alpha and 100 μg/ml of berberine, compound B or compound E. Controls included cells receiving TNF-alpha but no drug, as well as cells receiving no TNF-alpha and treated with or without NP-40 lysis buffer. Cell viability was assayed using the dye MTT (3-(4,5-dimethylthiozol-2-yl)-2,5-diphenyl tetrazolium bromide) as described.
The dose response was measured for the ability of compound B to inhibit TNF-alpha induced killing of cultured mouse fibrosarcoma cells. In this experiment, the inhibitory action of compound B was compared to that of a chimeric recombinant protein dimer containing soluble TNF receptor fused to the Fc portion of immunoglobulin heavy chain (Mohler KM et al., J Immunol 151:1548-61,1993), a known antagonist of TNF-alpha mediated cell killing. WEHI-13VAR cells were grown in buffered RPMI-1640 medium containing 3% FBS and assayed for TNF-alpha induced cell death as described by Khabar et al. (Immunol Lett 46:107-10, 1995). […]

IL-10 production = test: Inhibition of LPS-induced IL-10 production in human PBMC (ELISA); assay type: cell-based; conditions: human PBMC, 1, 10, 30 or 100 μM 1 hr preincubation, LPS 1 μg/ml 20 hr
Procedure: (§1) Human peripheral blood mononuclear cells (PBMC) were purified from human blood using Ficoll-Paque PLUS separation medium (Amersham Pharmacia Biotech) according to the manufacturer's recommended protocol. After centrifugation, the central PBMC layer was collected, washed twice with phosphate buffered saline (PBS) and then plated in a 96-well plate at a density of 2×10^5 cells/well in RPMI-1640 medium containing 10% FBS. The cells were preincubated with dexamethasone (1 μM) or Compound B (1, 10, 30 or 100 μM) for 1 hr and then challenged with LPS (1 μg/ml) for 20 hr. Cells receiving no drug treatment, incubated with or without LPS, served as controls. The cell supernatants were collected, and the amount of IL-10 in each was measured by standard ELISA. […] To confirm that the observed decrease in IL-10 was not due to cytotoxicity, the PBMC were plated in a separate plate, incubated for 20 hr with the same range of doses of Compound B, and the cell viability was assessed by a standard MTS dye exclusion assay (4-hr incubation with MTS).

COX-2 = target: T1, COX-2 (Mus musculus, UniProt Q05769); test: LPS-induced COX-2 activity in RAW264.7 cells (PGE2 EIA); assay type: cell-based, murine; conditions: RAW264.7, LPS 0.1 μg/ml 6 hr; higher concentrations of compound B (1-100 μM tested); dexamethasone 1 μM
T1 construct: examined in LPS-stimulated RAW cells; endogenous in cells; host or cells: RAW264.7 cells, LPS-stimulated (0.1 µg/ml, 6 hr), then lysed
T1 sequence (Q05769 18-604): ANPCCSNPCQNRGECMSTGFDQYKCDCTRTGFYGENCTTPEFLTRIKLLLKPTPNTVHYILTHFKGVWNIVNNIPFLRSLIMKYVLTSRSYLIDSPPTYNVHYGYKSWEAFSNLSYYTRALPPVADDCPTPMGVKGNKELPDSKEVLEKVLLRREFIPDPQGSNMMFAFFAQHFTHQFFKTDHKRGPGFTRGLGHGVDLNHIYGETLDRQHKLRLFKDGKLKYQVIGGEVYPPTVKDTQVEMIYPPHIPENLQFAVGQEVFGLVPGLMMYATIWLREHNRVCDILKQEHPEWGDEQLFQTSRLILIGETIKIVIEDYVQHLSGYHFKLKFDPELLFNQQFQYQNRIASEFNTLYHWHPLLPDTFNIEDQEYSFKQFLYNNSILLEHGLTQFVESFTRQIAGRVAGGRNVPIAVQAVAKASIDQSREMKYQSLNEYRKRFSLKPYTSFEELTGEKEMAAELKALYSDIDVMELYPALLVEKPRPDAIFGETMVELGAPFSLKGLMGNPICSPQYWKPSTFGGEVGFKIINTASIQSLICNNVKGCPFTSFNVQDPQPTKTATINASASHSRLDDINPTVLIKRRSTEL
Procedure: (§2) In this experiment, the inhibitory effect of compound B was compared to that of dexamethasone, a potent inhibitor of COX-2 expression. RAW264.7 cells were grown in RPMI-1640 medium containing 3% FBS and pre-incubated for 1 hr at 37° C. with compound B (1, 3, 10, 30 or 100 μM), dexamethasone (Dex, 1 μM), or without drug. After 1 hr LPS (0.1 μg/ml) was added, and the cells were further incubated for 6 hr at 37° C. Control cells received neither drug nor LPS. Cells were collected, lysed and assayed for cyclooxygenase activities essentially according to the method of Brideau et al. (Inflamm Res 45:68-74, 1996). COX-2 activity was measured using the Biotrak Prostaglandin E2 (PGE2) EIA Kit, and COX-1 activity was determined using the Biotrak Thromboxane B2 (TXB2) EIA Kit, both from Amersham Pharmacia Biotech (Piscataway, N.J.).

COX-1 = target: T2, COX-1 (Mus musculus, UniProt P22437); test: Constitutive COX-1 activity in RAW264.7 cells (TXB2 EIA); assay type: cell-based, murine; conditions: RAW264.7, LPS 0.1 μg/ml 6 hr; higher concentrations of compound B (1-100 μM tested); dexamethasone 1 μM
T2 construct: having no effect on the constitutively expressed COX-1 activity; endogenous in cells; host or cells: RAW264.7 cells, then lysed
T2 sequence (P22437 27-602): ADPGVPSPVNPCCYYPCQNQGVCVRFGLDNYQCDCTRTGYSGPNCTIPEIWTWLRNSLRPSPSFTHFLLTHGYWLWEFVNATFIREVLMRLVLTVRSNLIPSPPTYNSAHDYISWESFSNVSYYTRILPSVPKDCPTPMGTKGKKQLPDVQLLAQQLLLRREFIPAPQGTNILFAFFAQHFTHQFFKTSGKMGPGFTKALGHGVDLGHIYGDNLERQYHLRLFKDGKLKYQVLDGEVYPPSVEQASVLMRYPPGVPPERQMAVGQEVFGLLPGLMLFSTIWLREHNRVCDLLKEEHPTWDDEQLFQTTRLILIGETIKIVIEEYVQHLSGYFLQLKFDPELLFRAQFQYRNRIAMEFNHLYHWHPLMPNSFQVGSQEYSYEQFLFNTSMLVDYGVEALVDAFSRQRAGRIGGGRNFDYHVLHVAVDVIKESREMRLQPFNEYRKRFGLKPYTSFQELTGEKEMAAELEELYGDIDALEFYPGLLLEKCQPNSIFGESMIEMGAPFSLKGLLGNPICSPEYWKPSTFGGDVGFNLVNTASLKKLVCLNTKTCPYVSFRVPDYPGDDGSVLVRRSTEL
Procedure: as §2

[2] = system: Human peripheral blood mononuclear cells (PBMC); test: PBMC cell viability (MTS dye exclusion assay); assay type: cell-based; conditions: 20 hr, 1-100 μM
Procedure: as §1

IL-6 production = test: Inhibition of LPS-induced IL-6 production in RAW264.7 cells (ELISA); assay type: cell-based, murine; conditions: RAW264.7, 1-100 μM compound 1 hr pre-incubation, LPS 0.1 μg/ml 6 hr
Procedure: (§3) The ability of compound B to inhibit IL-6 production was also examined in LPS-stimulated RAW cells. RAW264.7 cells were grown in RPMI-1640 medium containing 3% FBS and pre-incubated for 1 hr at 37° C. with varying concentrations (1, 3, 10, 30 or 100 μM) of compound B. LPS (0.1 μg/ml) was then added, and the cells were further incubated for 6 hr at 37° C. in a 5% carbon dioxide atmosphere. Cell supernatants were then collected, aliquoted, and assayed for IL-6 by ELISA with anti-IL-6 antibody.

[3] = system: collagen-induced arthritis in male DBA/1 Lac mice; test: Suppression of collagen-induced arthritis in mice; assay type: in vivo; conditions: 50 mg/kg orally daily for 17 days, compared to vehicle-treated group
Procedure: The ability of compound B to reduce inflammation in an animal model of arthritis was also studied. Arthritis was induced by intradermal administration of collagen (100 μg/mice) in complete adjuvant in male DBA/1 Lac mice 7 weeks old. The booster immunization (100 μg/mice) in incomplete adjuvant was given subcutaneously on day 21. Two days later, when arthritic scores were around 1, animals were divided into two groups. One group received 50 mg/kg dose of compound B orally for 17 days daily. The second group received 10% PEG in water and was used as a vehicle-treated group. Body weight (FIG. 6, panel A), clinical score (FIG. 6, panel B), the number of joints affected (FIG. 6, panel C) and paw thickness (FIG. 6, panel D) were monitored 24 hours after drug administration during the treatment period.

TNF-alpha production = test: Inhibition of LPS-induced TNF-alpha production in RAW264.7 cells (ELISA); assay type: cell-based, murine; conditions: RAW264.7, 1-100 μM compound 1 hr pre-incubation, LPS 0.1 μg/ml 6 hr
Procedure: as §3, with “TNF-alpha” for “IL-6”, “was” for “was also”, “a standard in vitro model of inflammation—the murine macrophage-like cell line RAW264.7 stimulated with lipopolysaccharides (LPS).” for “LPS-stimulated RAW cells.”, “anti-TNF-alpha” for “anti-IL-6”

COc1ccc(-c2ncc3c(OC)c(OC)ccc3c2O)cc1 [Compound B]
concentration at which the maximal inhibitory effect on TNF-alpha induced cell killing was attained ([1]; 100 pg/ml or 50 pg/ml TNF-alpha, 20 hr, inhibition proportional to dose up to this concentration): 10 µM
inhibition of TNF-alpha induced cell killing (increased cell viability) ([1]; 100 μg/ml compound, 100 pg/ml or 1 pg/ml TNF-alpha, 20 hr co-incubation, relative to untreated or berberine-treated cells): inhibited TNF-alpha induced cell killing
inhibition of LPS-induced IL-10 production (IL-10 production): dose-dependent inhibition
effect on inducible COX-2 activity (COX-2): completely and selectively abrogated
effect on constitutively expressed COX-1 activity (COX-1): no effect
loss in cell viability (cytotoxicity) [2]: no significant loss in cell viability
inhibition of LPS-induced IL-6 production (IL-6 production): up to 60%
body weight [3]: No change in body weight
clinical score [3]: significantly lower clinical scores
number of joints affected [3]: fewer joints affected
paw thickness [3]: reduced paw thickness
inhibition of LPS-induced TNF-alpha production (TNF-alpha production): ~50%
